# Measured values reported in patent US20260374754A1, “N-((ISOQUINOLIN-6-YL)METHYL)-1H-PYRAZOLE-4-CARBOXAMIDE DERIVATIVES AS PLASMA KALLIKREIN INHIBITORS FOR THE TREATMENT OF HEREDITARY ANGIODEMA” (Takeda Pharmaceutical Company Limited, priority 2022, published 2026).
# pEC50: −log10 of the molar value.
# Target: human activated kallikrein enzyme (Homo sapiens, UniProt P03952)
# Assay: Inhibition of human activated plasma kallikrein, fluorogenic PFR-AMC substrate, 500 pM enzyme format
# Type: biochemical
# Settings: 500 pM activated kallikrein; 300 μM PFR-AMC; 30 min preincubation; 10 min room temperature; pH 7.5; read-out: Primary Dose Response Assay: Average EC50
# In short: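 500 pM activated kallikrein preincubated 30 min at room temperature with inhibitors in pH 7.5 Tris/EDTA/NaCl buffer with PEG-400 and Triton X-100. Reaction started with 300 μM PFR-AMC, run 10 min at room temperature; AMC fluorescence read at ex 380/em 460 nm.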
# Chain of human activated kallikrein enzyme (P03952 391-638 limits assumed): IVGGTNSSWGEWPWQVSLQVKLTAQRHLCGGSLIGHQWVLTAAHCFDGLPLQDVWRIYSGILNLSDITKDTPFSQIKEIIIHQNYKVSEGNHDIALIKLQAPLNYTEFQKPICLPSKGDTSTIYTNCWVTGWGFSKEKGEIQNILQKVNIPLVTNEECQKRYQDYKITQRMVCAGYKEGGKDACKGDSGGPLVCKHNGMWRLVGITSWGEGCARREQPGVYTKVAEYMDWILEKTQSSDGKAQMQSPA
# Chain of human activated kallikrein enzyme (P03952 20-390 partner limits assumed): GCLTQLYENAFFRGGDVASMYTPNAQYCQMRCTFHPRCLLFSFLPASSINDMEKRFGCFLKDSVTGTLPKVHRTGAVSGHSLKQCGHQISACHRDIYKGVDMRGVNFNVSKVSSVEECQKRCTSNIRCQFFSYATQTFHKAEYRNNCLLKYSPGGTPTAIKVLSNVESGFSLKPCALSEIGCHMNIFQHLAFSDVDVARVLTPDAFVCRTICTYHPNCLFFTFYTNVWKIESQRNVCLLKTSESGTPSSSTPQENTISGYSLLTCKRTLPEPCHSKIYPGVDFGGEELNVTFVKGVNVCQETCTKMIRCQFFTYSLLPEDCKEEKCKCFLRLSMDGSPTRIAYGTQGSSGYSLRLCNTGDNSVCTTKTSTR
row,SMILES,pEC50
1,"Cc1cc2c(N)nccc2c(C)c1CNc1nccc2c1cnn2Cc1cn2cc(C3CC3)cnc2n1 [Example 393, 6-(((1-((6-cyclopropylimidazo[1,2-a]pyrimidin-2-yl)methyl)-1H-pyrazolo[4,3-c]pyridin-4-yl)amino)methyl)-5,7-dimethylisoquinolin-1-amine]",6.00 to 7.00
2,"Cc1cc2c(N)nccc2c(C)c1CNc1cc(OCc2cn3nc(C4CC4)cc(CN4CCCC4)c3n2)ncn1 [Example 394, 6-(((6-((6-cyclopropyl-8-(pyrrolidin-1-ylmethyl)imidazo[1,2-b]pyridazin-2-yl)methoxy)pyrimidin-4-yl)amino)methyl)-5,7-dimethylisoquinolin-1-amine]",> 9.00
3,"CCOC(=O)C(C)(C)Cc1cc(C2CC2)cc2cc(COc3cc(NCc4c(C)cc5c(N)nccc5c4C)ncn3)nn12 [Example 396, ethyl 3-(2-(((6-(((1-amino-5,7-dimethylisoquinolin-6-yl)methyl)amino)pyrimidin-4-yl)oxy)methyl)-5-cyclopropylpyrazolo[1,5-a]pyridin-7-yl)-2,2-dimethylpropanoate]",8.00 to 9.00
4,"Cc1cc2c(N)nccc2c(C)c1CNc1cc(OCc2cn3c(=O)n(C4CC4)ccc3n2)ncn1 [Example 397, 2-(((6-(((1-amino-5,7-dimethylisoquinolin-6-yl)methyl)amino)pyrimidin-4-yl)oxy)methyl)-6-cyclopropylimidazo[1,2-c]pyrimidin-5(6H)-one]",7.00 to 8.00
5,"Cc1cc2c(N)nccc2c(C)c1CNc1cc(C(F)(F)c2cn3cc(C4CC4)ccc3n2)ncn1 [Example 404, 6-(((6-((6-cyclopropylimidazo[1,2-a]pyridin-2-yl)difluoromethyl)pyrimidin-4-yl)amino)methyl)-5,7-dimethylisoquinolin-1-amine]",7.00 to 8.00
6,"Cc1cc2c(N)nccc2c(C)c1CNc1cc(C(F)c2cn3cc(C4CC4)ccc3n2)ncn1 (stereo not drawn) [Example 405, 6-(((6-((6-cyclopropylimidazo[1,2-a]pyridin-2-yl)fluoromethyl)pyrimidin-4-yl)amino)methyl)-5,7-dimethylisoquinolin-1-amine]",> 9.00
7,"Cc1cc2c(N)nccc2c(C)c1CNc1cc(C(O)c2cn3cc(C4CC4)ccc3n2)ncn1 (stereo not drawn) [Example 406, (6-(((1-amino-5,7-dimethylisoquinolin-6-yl)methyl)amino)pyrimidin-4-yl)(6-cyclopropylimidazo[1,2-a]pyridin-2-yl)methanol]",> 9.00
8,"Cc1ccc2ncc(COc3cnnc(NCc4c(C)cc5c(N)nccc5c4C)c3)cc2c1 [Example 408, 5,7-dimethyl-6-(((5-((6-methylquinolin-3-yl)methoxy)pyridazin-3-yl)amino)methyl)isoquinolin-1-amine]",> 9.00

# Other lines, results leading:
row,pEC50,SMILES
1,7.00 to 8.00,"Cc1cc2c(N)nccc2c(C)c1CNc1cc(OCc2cc3cc(C4CC4)ccc3s2)ncn1 [Example 395, 6-(((6-((5-cyclopropylbenzo[b]thiophen-2-yl)methoxy)pyrimidin-4-yl)amino)methyl)-5,7-dimethylisoquinolin-1-amine]"
2,7.00 to 8.00,"CCCCc1cc(COc2cc(NCc3c(C)cc4c(N)nccc4c3C)ncn2)cc2cc(Cl)c[n+]([O-])c12 [Example 399, 6-(((6-(((1-amino-5,7-dimethylisoquinolin-6-yl)methyl)amino)pyrimidin-4-yl)oxy)methyl)-8-butyl-3-chloroquinoline 1-oxide]"
3,6.00 to 7.00,"CCCCc1cc(COc2cc(NCc3c(C)cc4c(N)nccc4c3C)ncn2)cc2cc(Cl)cnc12 [Example 402, 6-(((6-((8-butyl-3-chloroquinolin-6-yl)methoxy)pyrimidin-4-yl)amino)methyl)-5,7-dimethylisoquinolin-1-amine]"
4,> 9.00,"Cc1cc2c(N)nccc2c(C)c1CNc1cc(OCc2ccc3ncc(Cl)cc3c2)cnn1 [Example 407, 6-(((5-((3-chloroquinolin-6-yl)methoxy)pyridazin-3-yl)amino)methyl)-5,7-dimethylisoquinolin-1-amine]"
